Measurements: ChEMBL document CHEMBL1156829 (Proc Natl Acad Sci U S A, 2008)

Legend:
[1] = test system: Plasmodium falciparum; assay: NOVARTIS: Inhibition of Plasmodium falciparum 3D7 (drug-susceptible) proliferation in erythrocyte-based infection assay; type: functional, organism-based; details: Plasmodium falciparum, 3D7
[2] = test system: Plasmodium falciparum; assay: NOVARTIS: Inhibition of Plasmodium falciparum W2 (drug-resistant) proliferation in erythrocyte-based infection assay; type: functional, organism-based; details: Plasmodium falciparum, W2; read-out: EC50
[3] = NOVARTIS: Cytotoxicity against human hepatocellular carcinoma cell line (Huh7); type: toxicity, cell-based, Huh-7; details: Huh7 cells (hepatocellular carcinoma cell line)

COc1ccc(/C=C2/SC(=Nc3ccccc3OC)NC2=O)cc1
EC50 [1]: 83.6 nM | EC50 [2]: 38.4 nM | CC50 [3]: 19800 nM

COc1cc(Nc2cncc(-c3ccc(C(N)=O)cc3)n2)cc(OC)c1OC
EC50 [1]: 29.5 nM | EC50 [2]: 50.1 nM | CC50 [3]: 25300 nM

CCC(CO)NCC(O)Cn1c2ccc(Cl)cc2c2cc(Cl)ccc21 (stereo not given)
EC50 [1]: 368 nM | EC50 [2]: 40.6 nM | CC50 [3]: 20100 nM

C[n+]1ccc(C=Cc2ccc(Br)cc2)cc1
EC50 [1]: 638 nM | EC50 [2]: 205 nM | CC50 [3]: > 100000 nM

CCc1c(C#N)c(N)nc(SCC(=O)c2ccc(C)cc2C)c1C#N
EC50 [1]: 308 nM | EC50 [2]: 196 nM | CC50 [3]: > 100000 nM

NC1=NC(c2ccccc2)N(c2ccccc2)C(N)=N1 (stereo not given)
EC50 [1]: 82.3 nM | EC50 [2]: 204 nM | CC50 [3]: > 100000 nM

CN(C)CCCNc1ncnc2c1[nH]c1ccc(Cl)cc12
EC50 [1]: 26.1 nM | EC50 [2]: 43.7 nM | CC50 [3]: 20700 nM

OC(CNC1CCCCC1)Cn1c2ccc(Cl)cc2c2cc(Cl)ccc21 (stereo not given)
EC50 [1]: 333 nM | EC50 [2]: 116 nM | CC50 [3]: 57300 nM

Cc1ccc(-c2c[n+](Cc3ccc(Cl)cc3)c3n2CCC3)cc1
EC50 [1]: 373 nM | EC50 [2]: 153 nM | CC50 [3]: > 75700 nM

CC(=O)NCCc1nc2ccccc2n1Cc1ccc(C(C)C)cc1
EC50 [1]: 764 nM | EC50 [2]: 98.1 nM | CC50 [3]: 48700 nM

O=C(Nc1c(C(=O)Nc2cccc(Cl)c2)oc2ccccc12)c1cc(-c2ccccc2O)n[nH]1
EC50 [1]: 272 nM | EC50 [2]: 74.2 nM | CC50 [3]: 35100 nM

CC(=NNC(=O)c1ccc(C)cc1)c1ccccn1
EC50 [1]: 350 nM | EC50 [2]: 209 nM | CC50 [3]: > 100000 nM

c1ccc(CCc2nc3cccnc3n2C2CCN(C3CCN(Cc4ccccc4)CC3)CC2)cc1
EC50 [1]: 153 nM | EC50 [2]: 175 nM | CC50 [3]: 81400 nM

COc1ccc(-c2c[n+](CC(=O)c3ccc(C)cc3)c3n2CCC3)cc1
EC50 [1]: 745 nM | EC50 [2]: 200 nM | CC50 [3]: > 100000 nM

Cc1ccc(-n2c(SCc3ccc(F)cc3)nnc2C(Cc2ccccc2)NC(=O)NC(C)(C)C)cc1 (stereo not given)
EC50 [1]: 330 nM | EC50 [2]: 125 nM | CC50 [3]: > 62300 nM

CCn1c2ccccc2[n+]2c(C)cc(C)nc12
EC50 [1]: 266 nM | EC50 [2]: 199 nM | CC50 [3]: > 100000 nM

CCCOC(=O)C1=C(C)NC2=C(C(=O)CC(c3ccc(Cl)cc3)C2)C1c1ccc(Br)cc1 (stereo not given)
EC50 [1]: 498 nM | EC50 [2]: 198 nM | CC50 [3]: > 100000 nM

CSCCC(C(=O)NCC(=O)O)N1C(=O)c2cc(NC(C)=O)ccc2NC(=O)[C@@H]1c1ccccc1 (stereo not given in full)
EC50 [1]: > 1250 nM | EC50 [2]: 15.3 nM | CC50 [3]: > 7760 nM

CCCCCC(=O)Oc1ccccc1-c1nc2ccccn2c1NC(C)(C)CC(C)(C)C
EC50 [1]: 701 nM | EC50 [2]: 19.5 nM | CC50 [3]: > 10000 nM

CCCCN(CC)CCNC(=O)C1c2ccccc2C(=O)N(Cc2ccc(F)cc2)C1c1ccc(OC)cc1 (stereo not given)
EC50 [1]: 2270 nM | EC50 [2]: 195 nM | CC50 [3]: > 100000 nM

O=c1c(-c2ccc(Cl)cc2Cl)c(C(F)(F)F)oc2c(CN3CCCCC3)c(O)ccc12
EC50 [1]: 994 nM | EC50 [2]: 198 nM | CC50 [3]: > 100000 nM

COCCNC(=O)CN1C(=O)CC(C)(C)Sc2ccccc21
EC50 [1]: > 1250 nM | EC50 [2]: > 19.8 nM | CC50 [3]: > 10000 nM

Oc1ccc(-c2cccnc2)cc1CNC1C2CC3CC(C2)CC1C3 (stereo not given)
EC50 [1]: 459 nM | EC50 [2]: 195 nM | CC50 [3]: > 100000 nM

O=C(COc1ccc(Cl)cc1)Nc1nnc(-c2ccc3c(c2)OCO3)s1
EC50 [1]: > 1250 nM | EC50 [2]: 26.7 nM | CC50 [3]: > 13800 nM

CCOc1ccc(Nc2cc(C)nc3ccc(OCC)cc23)cc1
EC50 [1]: > 1250 nM | EC50 [2]: 20.3 nM | CC50 [3]: > 10000 nM

Cc1ccnc(NC(c2ccc(Cl)cc2Cl)c2ccc3cccnc3c2O)c1 (stereo not given)
EC50 [1]: 296 nM | EC50 [2]: 120 nM | CC50 [3]: 60100 nM

CCOC(=O)c1cnc2ccc(OCC)cc2c1NCCCN(CC)CC
EC50 [1]: 117 nM | EC50 [2]: 140 nM | CC50 [3]: 70100 nM

CCOC(=O)C1(Cc2ccc(OC)cc2)CCN(C(=O)c2scc3c2OCCO3)CC1
EC50 [1]: 264 nM | EC50 [2]: 199 nM | CC50 [3]: > 100000 nM

O=c1c2ccccc2[nH]c2ccc(F)cc12
EC50 [1]: 186 nM | EC50 [2]: 208 nM | CC50 [3]: > 100000 nM

CCC(=O)NC(c1ccccc1Cl)c1cc(Cl)c2cccnc2c1O (stereo not given)
EC50 [1]: 232 nM | EC50 [2]: 73.6 nM | CC50 [3]: 35400 nM

Cc1cc(N2CCN(C3CCCCC3)CC2)n2c(nc3ccccc32)c1C#N
EC50 [1]: 63.5 nM | EC50 [2]: 203 nM | CC50 [3]: > 100000 nM

CN(CCCNc1ccnc2cc(Cl)ccc12)C(=O)CSc1ccccc1
EC50 [1]: 7.17 nM | EC50 [2]: 20.3 nM | CC50 [3]: > 10000 nM

Nc1cc(C(=O)Nc2ccc(C3=NCCN3)cc2)ccc1C(=O)Nc1ccc(C2=NCCN2)cc1
EC50 [1]: 290 nM | EC50 [2]: 179 nM | CC50 [3]: 90600 nM

CCN(CC)CCCNc1ccnc2cc3ccccc3cc12
EC50 [1]: 33.8 nM | EC50 [2]: 51.8 nM | CC50 [3]: 26200 nM

C=CC1CN2CCC1CC2C(OC(C)=O)c1ccnc2ccc(OC)cc12 (stereo not given)
EC50 [1]: 240 nM | EC50 [2]: 213 nM | CC50 [3]: > 100000 nM

Cc1cc(Nc2cccc([N+](=O)[O-])c2)nc2cc(O)ccc12
EC50 [1]: 672 nM | EC50 [2]: 75.1 nM | CC50 [3]: 36300 nM

Cc1ccc(NC(c2ccccc2)(c2ccccc2)c2ccccc2)cc1C
EC50 [1]: 439 nM | EC50 [2]: 207 nM | CC50 [3]: > 100000 nM

CC(=NNc1nc(-c2ccccc2O)nc2ccccc12)c1ccccc1O
EC50 [1]: 742 nM | EC50 [2]: 206 nM | CC50 [3]: > 100000 nM

COC(=O)C1=C(C)NC2=C(C(=O)CC(c3ccccc3)C2)C1c1cc(C)sc1SC (stereo not given)
EC50 [1]: 671 nM | EC50 [2]: 205 nM | CC50 [3]: > 100000 nM

CC(=O)N(C1=C(N2CCCCC2)C(=O)c2ccccc2C1=O)c1ccc(F)c(F)c1
EC50 [1]: 238 nM | EC50 [2]: 94.7 nM | CC50 [3]: 47700 nM

COC(=O)c1ccc(N(C(=O)Cc2c[nH]c3ccccc23)C(C(=O)NC2CCCCC2)c2ccccc2F)cc1 (stereo not given)
EC50 [1]: 200 nM | EC50 [2]: 197 nM | CC50 [3]: > 100000 nM

Cc1ccn2c(NC(C)(C)CC(C)(C)C)c(-c3ccccc3OC(=O)c3ccc(C(F)(F)F)cc3)nc2c1
EC50 [1]: 847 nM | EC50 [2]: 19.9 nM | CC50 [3]: > 10000 nM

COc1ccc(C2CC(=O)C3=C(C2)NC(C)=C(C(=O)OC(C)C)C3c2cccc(Cl)c2)cc1OC (stereo not given)
EC50 [1]: 71.3 nM | EC50 [2]: 31.8 nM | CC50 [3]: 16000 nM

c1ccc(-c2nn(-c3ccccc3)[n+](-c3ccccc3)n2)cc1
EC50 [1]: 296 nM | EC50 [2]: 207 nM | CC50 [3]: > 100000 nM

Oc1ccc(-c2ccccc2)cc1CN1CCC(c2ccccc2)CC1
EC50 [1]: 2420 nM | EC50 [2]: 204 nM | CC50 [3]: > 100000 nM

N=c1c2c(n(Cc3ccc(F)cc3)c3c1CCC3)CCC2
EC50 [1]: 266 nM | EC50 [2]: 202 nM | CC50 [3]: > 100000 nM

CCOC(=O)c1ccc(Nc2nc(N)c3cc(OC)c(OC)cc3n2)cc1
EC50 [1]: 482 nM | EC50 [2]: 200 nM | CC50 [3]: > 100000 nM

COc1ccc(C2=C(Nc3ccc(Br)c(C)c3)c3ccccc3C2=O)cc1
EC50 [1]: 185 nM | EC50 [2]: 202 nM | CC50 [3]: > 100000 nM

COc1ccc(N=Nc2nc3ccc(Br)cc3n2C)cc1
EC50 [1]: 197 nM | EC50 [2]: 199 nM | CC50 [3]: > 100000 nM

OC(CN1CCN(Cc2ccccc2)CC1)Cn1c2ccc(Br)cc2c2cc(Br)ccc21 (stereo not given)
EC50 [1]: 296 nM | EC50 [2]: 57.3 nM | CC50 [3]: 29000 nM

CC(C)COc1nc(-c2ccccc2)n(S(=O)(=O)c2cccc3cccnc23)n1
EC50 [1]: 42.3 nM | EC50 [2]: 4.56 nM | CC50 [3]: > 2160 nM

Cc1ccn2c(NC(C)(C)CC(C)(C)C)c(-c3ccccc3OC(=O)c3ccc(Br)cc3)nc2c1
EC50 [1]: 740 nM | EC50 [2]: 148 nM | CC50 [3]: 75000 nM

NCC(=O)N1CCn2c(nc(-c3ccccc3)c2Nc2ccc3c(c2)OCO3)C1
EC50 [1]: 162 nM | EC50 [2]: 198 nM | CC50 [3]: > 100000 nM

O=C(c1ccc(N2CC3CC(C2)c2cccc(=O)n2C3)c(NS(=O)(=O)c2ccc3c(c2)OCCO3)c1)N1CCN(c2ccccn2)CC1 (stereo not given)
EC50 [1]: 2020 nM | EC50 [2]: 194 nM | CC50 [3]: > 100000 nM

Cc1ccn2c(NC(C)(C)CC(C)(C)C)c(-c3ccccc3OC(=O)CCCCl)nc2c1
EC50 [1]: 753 nM | EC50 [2]: 20.2 nM | CC50 [3]: > 10000 nM
